Test results as given in US11267824B2, “Inhibitors of indoleamine 2,3-dioxygenase and/or tryptophan 2,3-dioxygenase” (IDORSIA PHARMACEUTICALS LTD, priority 2017, dated 2022).

Experiments:
[1] = target: Recombinant full-length human IDO1 (Homo sapiens (Human), UniProt P14902); experiment: IDO1 enzymatic assay (IDO inhibitory activity); assay type: biochemical; settings: 2 nM enzyme, 5 μM L-tryptophan, pH6.5, 30 min pre-incubation, NFK quantified by LCMS; mean values if measured multiple times; read-out: hIDO activity (IC50 in nM)
Chain of Recombinant full-length human IDO1 (P14902 whole entry): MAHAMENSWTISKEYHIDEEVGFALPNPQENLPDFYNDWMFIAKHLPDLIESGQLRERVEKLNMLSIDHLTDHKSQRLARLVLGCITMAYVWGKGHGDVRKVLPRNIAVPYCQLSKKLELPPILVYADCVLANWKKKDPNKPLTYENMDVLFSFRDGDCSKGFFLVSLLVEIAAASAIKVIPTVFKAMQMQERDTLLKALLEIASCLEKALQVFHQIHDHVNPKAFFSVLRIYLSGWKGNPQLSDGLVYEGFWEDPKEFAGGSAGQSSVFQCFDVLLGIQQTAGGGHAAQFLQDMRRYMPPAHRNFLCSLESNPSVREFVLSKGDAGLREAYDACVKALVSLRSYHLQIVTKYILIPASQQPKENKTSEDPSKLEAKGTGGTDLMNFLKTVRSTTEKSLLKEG
Experimental: 1) Testing Compounds for IDO Inhibitory Activity in an IDO1 Enzymatic Assay:
Recombinant full-length human IDO1 with a N-terminal hexahistidine tag expressed in E. coli and purified to homogeneity is incubated at a final concentration of 2 nM in assay buffer consisting of 37.5 mM phosphate buffer at pH6.5 supplemented with 10 mM sodium L-ascorbate, 0.45 μM methylene blue, 50 U/ml catalase, 0.01% BSA, and 0.01% Tween 20 (protocol modified from Seegers et al, JBS 2014). Example compounds are serially diluted in DMSO, further diluted in phosphate buffer, and added to the enzyme at final concentrations ranging from 10 μM to 0.5 nM. The final DMSO concentration is 0.6%. Following a pre-incubation of 30 minutes at RT, the reaction is started by the addition of L-tryptophan at a final concentration of 5 μM in assay buffer. After 30 minutes of incubation at RT, 3 μL of the reaction mixture are transferred to a 384 deep well plate containing 25 μL of deionized water. 100 μl of 200 nM L-Tryptophan-(indole-d5) in cold 100% methanol are added followed by a 10 minutes centrifugation at 4,000 rpm at 4° C. An additional 75 μL of deionized water are then added and followed by a 10 minutes centrifugation at 4,000 rpm at 4° C. The product of the reaction N′-Formylkynurenine (NFK) is quantified by LCMS and normalized to the L-Tryptophan-(indole-d5) signal. Samples with 0.6% DMSO (0% effect) and a TDO/IDO inhibitor (100% effect) are used as control samples to set the parameters for the non-linear regression necessary for the determination of the half-maximal inhibitory concentration (IC50) for each compound. For each compound concentration the percentage of activity compared to 0% and 100% effect is calculated as average ±STDEV (each concentration measured in duplicate). IC50 values and curves are generated with XLfit software (IDBS) using Dose-Response One Site model 203 (four parameter logistic curve model). When compounds are measured multiple times, mean values are given.

[2] = target: Recombinant human TDO comprising amino acids 19-407 (Homo sapiens (Human), UniProt P48775); experiment: TDO2 enzymatic assay (TDO inhibitory activity); assay type: biochemical; settings: 15 nM enzyme, 200 μM L-tryptophan, pH7, 30 min pre-incubation, NFK quantified by LCMS; mean values if measured multiple times; read-out: hTDO activity (IC50 in nM)
Chain of Recombinant human TDO comprising amino acids 19-407 (P48775 19-406 limits assumed): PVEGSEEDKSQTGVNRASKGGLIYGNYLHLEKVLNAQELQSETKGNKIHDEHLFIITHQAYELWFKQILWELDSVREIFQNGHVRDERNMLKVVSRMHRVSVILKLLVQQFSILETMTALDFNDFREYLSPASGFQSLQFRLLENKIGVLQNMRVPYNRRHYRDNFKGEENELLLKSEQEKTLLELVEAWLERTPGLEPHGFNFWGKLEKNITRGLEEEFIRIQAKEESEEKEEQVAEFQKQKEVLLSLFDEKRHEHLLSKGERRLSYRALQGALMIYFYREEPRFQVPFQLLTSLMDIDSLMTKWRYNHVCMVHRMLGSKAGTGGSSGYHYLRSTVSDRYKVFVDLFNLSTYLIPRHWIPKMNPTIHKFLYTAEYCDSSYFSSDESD
Experimental: 2) Testing Compounds for TDO Inhibitory Activity in a TDO2 Enzymatic Assay:
Recombinant human TDO comprising amino acids 19-407 with a N-terminal hexahistidine tag expressed in E. coli and purified to homogeneity is incubated at a final concentration of 15 nM in assay buffer consisting of 75 mM phosphate buffer at pH7 supplemented with 100 μM ascorbic acid, 50 U/ml Catalase, 0.01% BSA, and 0.01% Tween 20 (protocol modified from Seegers et al, JBS 2014). Example compounds are serially diluted in DMSO, further diluted in phosphate buffer, and added to the reaction mixture at final concentrations ranging from 10 μM to 0.5 nM. The final DMSO concentration is 0.6%. Following a pre-incubation of 30 minutes at RT, the reaction is started by the addition of L-tryptophan at a final concentration of 200 μM in assay buffer. After 30 minutes of incubation at RT, 3 μL of the reaction mixture are transferred to a 384 deep well plate containing 25 μL of deionized water. 100 μl of 200 nM L-Tryptophan-(indole-d5) in cold 100% methanol are added followed by a 10 minutes centrifugation at 4,000 rpm at 4° C. An additional 75 μL of deionized water are then added and followed by a 10 minutes centrifugation at 4,000 rpm at 4° C. The product of the reaction N′-Formylkynurenine (NFK) is quantified by LCMS and normalized to the L-Tryptophan-(indole-d5) signal. Samples with 0.6% DMSO (0% effect) and a TDO/IDO inhibitor (100% effect) are used as control samples to set the parameters for the non-linear regression necessary for the determination of the half-maximal inhibitory concentration (IC50) for each compound. For each compound concentration the percentage of activity compared to 0% and 100% effect is calculated as average±STDEV (each concentration measured in duplicate). IC50 values and curves are generated with XLfit software (IDBS) using Dose-Response One Site model 203 (four parameter logistic curve model). When compounds are measured multiple times, mean values are given.

Row | SMILES | IC50 [1] [nM] | IC50 [2] [nM]
1 | CC1CCC(C(O)c2c(C3CC3)sc3cncn23)CC1 (racemic) [Example 44, rac-(2-Cyclopropyl-imidazo[5,1-b]thiazol-3-yl)-(4-methyl-cyclohexyl)-methanol] | 15.8 | 383
2 | OC(c1c(C2CC2)sc2cncn12)C1CCCC1 (racemic) [Example 46, rac-Cyclopentyl-(2-cyclopropyl-imidazo[5,1-b]thiazol-3-yl)-methanol] | 11.4 | 473
3 | Cc1cccc(C(O)c2c(C3CC3)sc3cncn23)c1 (racemic) [Example 52, rac-(2-Cyclopropyl-imidazo[5,1-b]thiazol-3-yl)-m-tolyl-methanol] | 64.8 | 22.3
4 | CCc1ccc(C(O)c2c(C3CC3)sc3cncn23)cc1 (racemic) [Example 53, rac-(2-Cyclopropyl-imidazo[5,1-b]thiazol-3-yl)-(4-ethyl-phenyl)-methanol] | 60.1 | 1530
5 | CCc1cccc(C(O)c2c(C3CC3)sc3cncn23)c1 (racemic) [Example 54, rac-(2-Cyclopropyl-imidazo[5,1-b]thiazol-3-yl)-(3-ethyl-phenyl)-methanol] | 120 | 1850
6 | COc1cccc(C(O)c2c(C3CC3)sc3cncn23)c1 (racemic) [Example 56, rac-(2-Cyclopropyl-imidazo[5,1-b]thiazol-3-yl)-(3-methoxy-phenyl)-methanol] | 251 | 3310
7 | Cc1sc2cncn2c1C(O)c1cccs1 (racemic) [Example 57, rac-(2-Methyl-imidazo[5,1-b]thiazol-3-yl)-thiophen-2-yl-methanol] | 433 | 829
8 | Cc1sc2cncn2c1C(O)c1ccc(N(C)C)cc1 (racemic) [Example 58, rac-(4-Dimethylamino-phenyl)-(2-methyl-imidazo[5,1-b]thiazol-3-yl)-methanol] | 1430 | > 10200
9 | OC(Cc1ccccc1)c1c(C2CC2)sc2cncn12 (racemic) [Example 59, rac-1-(2-Cyclopropyl-imidazo[5,1-b]thiazol-3-yl)-2-phenyl-ethanol] | 249 | 881
10 | OC(Cc1c(Cl)cccc1Cl)c1c(C2CC2)sc2cncn12 (racemic) [Example 60, rac-1-(2-Cyclopropyl-imidazo[5,1-b]thiazol-3-yl)-2-(2,6-dichloro-phenyl)-ethanol] | 287 | 455
11 | Cc1ccccc1CC(O)c1c(C2CC2)sc2cncn12 (racemic) [Example 61, rac-1-(2-Cyclopropyl-imidazo[5,1-b]thiazol-3-yl)-2-o-tolyl-ethanol] | 431 | 578
12 | COc1cccc(CC(O)c2c(C)sc3cncn23)c1 (racemic) [Example 62, rac-2-(3-Methoxy-phenyl)-1-(2-methyl-imidazo[5,1-b]thiazol-3-yl)-ethanol] | 3150 | 7160
13 | OC(CC1CCC(F)(F)CC1)c1c(C2CC2)sc2cncn12 (racemic) [Example 71, rac-1-(2-Cyclopropyl-imidazo[5,1-b]thiazol-3-yl)-2-(4,4-difluoro-cyclohexyl)-ethanol] | 28.5 | 263
14 | CC(C)C1CCC(C(O)c2c(C3CC3)sc3cncn23)CC1 (racemic) [Example 72, rac-(2-Cyclopropyl-imidazo[5,1-b]thiazol-3-yl)-(4-isopropyl-cyclohexyl)-methanol] | 102 | 1470
15 | OC(c1c(C2CC2)sc2cncn12)C1CCC(c2ccccc2)CC1 (racemic) [Example 73, rac-(2-Cyclopropyl-imidazo[5,1-b]thiazol-3-yl)-(4-phenyl-cyclohexyl)-methanol] | 43.7 | 3110
16 | CC(C)(C)C1CCC(CC(O)c2c(C3CC3)sc3cncn23)CC1 (racemic) [Example 74, rac-2-(4-tert-Butyl-cyclohexyl)-1-(2-cyclopropyl-imidazo[5,1-b]thiazol-3-yl)-ethanol] | 950 | 4330

Continued by falling IC50 [1], values first:

Row | IC50 [1] [nM] | IC50 [2] [nM] | SMILES
17 | 325 | 3510 | OC(Cc1cccc2ccccc12)c1c(C2CC2)sc2cncn12 (racemic) [Example 67, rac-1-(2-Cyclopropyl-imidazo[5,1-b]thiazol-3-yl)-2-naphthalen-1-yl-ethanol]
18 | 86.9 | 2270 | COc1ccc(C(O)c2c(C3CC3)sc3cncn23)cc1 (racemic) [Example 55, rac-(2-Cyclopropyl-imidazo[5,1-b]thiazol-3-yl)-(4-methoxy-phenyl)-methanol]
19 | 72.1 | 746 | OC(c1c(C2CC2)sc2cncn12)C1CCC2(CCCC2)CC1 (racemic) [Example 70, rac-(2-Cyclopropyl-imidazo[5,1-b]thiazol-3-yl)-spiro[4.5]dec-8-yl-methanol]
20 | 69 | 3180 | OC(CC1CCCCC1)c1c(C(F)(F)F)sc2cncn12 (racemic) [Example 64, rac-2-Cyclohexyl-1-(2-trifluoromethyl-imidazo[5,1-b]thiazol-3-yl)-ethanol]
21 | 50.5 | 989 | OC(c1ccccc1)c1c(C2CC2)sc2cncn12 (racemic) [Example 50, rac-(2-Cyclopropyl-imidazo[5,1-b]thiazol-3-yl)-phenyl-methanol]
22 | 50.3 | 638 | CC1CCC(CC(O)c2c(C3CC3)sc3cncn23)CC1 (racemic) [Example 49, rac-1-(2-Cyclopropyl-imidazo[5,1-b]thiazol-3-yl)-2-(4-methyl-cyclohexyl)-ethanol]
23 | 48.4 | 1460 | Cc1ccc(C(O)c2c(C3CC3)sc3cncn23)cc1 (racemic) [Example 51, rac-(2-Cyclopropyl-imidazo[5,1-b]thiazol-3-yl)-p-tolyl-methanol]
24 | 43.3 | 772 | OC(c1c(C2CC2)sc2cncn12)C1CCC(C(F)(F)F)CC1 (racemic) [Example 81, rac-(2-Cyclopropyl-imidazo[5,1-b]thiazol-3-yl)-(4-trifluoromethyl-cyclohexyl)-methanol]
25 | 35.7 | 583 | CCC1CCC(C(O)c2c(C3CC3)sc3cncn23)CC1 (racemic) [Example 45, rac-(2-Cyclopropyl-imidazo[5,1-b]thiazol-3-yl)-(4-ethyl-cyclohexyl)-methanol]
26 | 27 | 564 | OC(c1c(C(F)(F)F)sc2cncn12)C1CCCCC1 (racemic) [Example 63, rac-Cyclohexyl-(2-trifluoromethyl-imidazo[5,1-b]thiazol-3-yl)-methanol]
27 | 25.1 | 907 | OC(c1c(C2CC2)sc2cncn12)C1CCC1 (racemic) [Example 43, rac-Cyclobutyl-(2-cyclopropyl-imidazo[5,1-b]thiazol-3-yl)-methanol]
28 | 14.4 | 29.3 | C=Cc1sc2cncn2c1C(O)C1CCCCC1 (racemic) [Example 68, rac-Cyclohexyl-(2-vinyl-imidazo[5,1-b]thiazol-3-yl)-methanol]
